# From patent US20240262812A1, “N-SUBSTITUTED PHENYLSULFONAMIDE COMPOUND AND USE THEREOF” (Shanghai Leado Pharmatech Co., Ltd., priority 2021, published 2024)
# Tests used:
# mTRPA1 = biological target: T1, mTRPA1 (Mus musculus, UniProt Q8BLA8); test: IonWorks Barracuda (IWB) automated patch clamp, TRPA1 inhibitory activity; assay type: cell-based; settings: HEK293 cells stably expressing mTRPA1, current induced by AITC, amplitude at +100 mV; read-out: IC50 (inhibition activity on TRPA1)
# T1 construct: expressed in transfected cells
# Procedure, shortened: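 HEK293 cells stably expressing mouse TRPA1, perforated-patch whole-cell recording (amphotericin B) on IonWorks Barracuda; holding 0 mV, −100 to +100 mV ramp over 300 ms every 10 s. Current evoked by 300 µM AITC, leak-subtracted, amplitude taken at +100 mV; IC50 from fitted dose-effect curves, HC030031 as plate reference.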
# [1] = system: DSS induced inflammatory colitis in C57BL/6 mice; test: DSS induced inflammatory colitis model in C57BL/6 mice; assay type: in vivo, mouse; settings: 10 mg/kg oral once a day, day 0 to day 7; for DAI score: FIG. 3; for length of the colorectum / weight of the colorectum: FIG. 4; for level of colorectal inflammatory factor IL-10 (ELISA) / level of colorectal inflammatory factor TNF-α (ELISA): FIG. 5
# Method: The therapeutic effect of compounds prepared in some examples of the present invention on DSS (dextran sulfate sodium) induced inflammatory colitis in C57BL/6 mice (corresponding to ulcerative colitis) was investigated.
# • Animal species and strains: C57BL/6 mice • Administration record: No administration history • Gender and weight: Female, about 18-20 g • Breeding party/supplier: Shanghai SLAC Laboratory Animal Co., Ltd • Adaptation period: 7 days • Room: SPF Rooms • Indoor temperature: 20-26° C. • Indoor relative humidity: 40-70% • Lighting: Fluorescent lighting, 12-hour illumination (08:00-20:00) and 12 hour no illumination • Animal feeding: 2-5 mice per cage (same administration group) • Food: Unlimited access to feed (disinfected by irradiation, Shanghai SLAC Laboratory Animal Co., Ltd, China) • Water: Unlimited access to drinking water (tap water purified through ultra-pure water filtration system)
# A total of 80 C57BL/6 mice were purchased from Shanghai SLAC Laboratory Animal Co., Ltd, of which 10 were used as backup animals to select animals with suitable weight range included in the groups. All backup animals are not subjected to any administration or modeling procedures and will be euthanized uniformly at the end of the experiment.
# 70 animals were selected on Day 3 and randomly grouped based on animal weight using BioBook software to ensure that the weight values of each group of animals were similar to reduce bias.
# 3.1 An appropriate amount of DSS powder was dissolved in high-pressure sterilized drinking water solvent and a 3% DSS solution was prepared.
# 3.2 Induction of Colitis: On day 3, 70 mice were randomly divided into 7 groups according to Table 7. From day 0 to day 4, mice in groups 2 to 7 drank 3% DSS aqueous solution for 5 days, followed by drank normal water ad libitum (from day 5 to before autopsy). The day of initial administration of DSS drinking water was counted as day 0. DSS aqueous solution was wrapped in opaque dark bags to ensure light avoidance. DSS aqueous solution was replaced every 2 days.
# 3.3. Dosage regimen: See Table 7.
# Changes in body weight, feces, and bleeding of all groups of mice were record daily. Three items were scored according to Table 8 below, and the scores were added together to form the daily disease activity index (DAI) score.
# After blood collection, the animals were euthanized by inhaling excessive CO2 and dislocation of cervical vertebra. Then the abdominal cavity was cut open and the colorectum was taken out. After removing the tissue around the colon, the longitudinal length from the ileocecal valve to the anus was measured. Afterwards, the colorectum was cut open and the contents of feces were scored. Finally, the intestinal contents were cleaned, and the entire colon was photographed and weighed.
# Commercially available ELISA analysis kits were used to analyze the colorectal inflammation factors TNF-α and IL-10 in each group.
# The health status of animals and their comprehensive response to DSS and drugs were observed every day. Any abnormal appearance or behavior other than those related to the development of the disease was recorded in detail in the Pharmalegacy Biological Experimental Observation Form.
# The data was calculated as mean±standard error. Statistical analysis was performed using Graphpad Prism and SPSS software. The specific data is presented in the form of charts. When P<0.05, it is considered statistically significant.
# T1 sequence (Q8BLA8 whole entry): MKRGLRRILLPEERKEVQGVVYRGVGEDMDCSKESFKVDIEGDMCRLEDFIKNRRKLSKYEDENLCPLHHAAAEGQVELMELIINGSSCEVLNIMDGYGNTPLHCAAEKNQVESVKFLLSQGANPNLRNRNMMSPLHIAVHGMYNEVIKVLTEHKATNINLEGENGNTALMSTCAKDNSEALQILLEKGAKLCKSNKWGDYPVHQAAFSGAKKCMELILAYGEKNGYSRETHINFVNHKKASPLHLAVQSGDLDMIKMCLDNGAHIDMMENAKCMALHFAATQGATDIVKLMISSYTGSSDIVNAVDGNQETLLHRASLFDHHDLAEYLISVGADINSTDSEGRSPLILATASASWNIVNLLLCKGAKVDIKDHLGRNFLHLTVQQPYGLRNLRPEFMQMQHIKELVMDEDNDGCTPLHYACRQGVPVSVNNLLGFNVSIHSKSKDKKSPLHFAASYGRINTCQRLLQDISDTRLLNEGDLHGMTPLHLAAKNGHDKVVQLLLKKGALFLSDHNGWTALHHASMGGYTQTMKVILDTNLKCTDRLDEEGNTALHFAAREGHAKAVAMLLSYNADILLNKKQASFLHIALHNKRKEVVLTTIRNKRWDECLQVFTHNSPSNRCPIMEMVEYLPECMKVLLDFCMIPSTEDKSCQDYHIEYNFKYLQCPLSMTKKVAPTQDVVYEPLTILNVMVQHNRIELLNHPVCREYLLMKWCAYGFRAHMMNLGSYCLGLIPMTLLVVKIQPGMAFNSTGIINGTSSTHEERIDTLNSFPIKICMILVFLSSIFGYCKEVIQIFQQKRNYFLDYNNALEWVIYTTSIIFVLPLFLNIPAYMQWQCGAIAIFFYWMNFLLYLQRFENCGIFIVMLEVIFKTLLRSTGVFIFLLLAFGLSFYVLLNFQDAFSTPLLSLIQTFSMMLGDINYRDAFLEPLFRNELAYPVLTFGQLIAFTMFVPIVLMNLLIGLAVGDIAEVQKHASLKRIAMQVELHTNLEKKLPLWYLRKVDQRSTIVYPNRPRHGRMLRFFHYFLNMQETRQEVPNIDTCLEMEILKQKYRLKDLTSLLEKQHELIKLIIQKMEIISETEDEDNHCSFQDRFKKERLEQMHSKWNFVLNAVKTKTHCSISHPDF
IC50 (mTRPA1) [µM],Compound,DAI score [1],length of the colorectum [1],weight of the colorectum [1],level of colorectal inflammatory factor IL-10 (ELISA) [1],level of colorectal inflammatory factor TNF-α (ELISA) [1]
< 1,NCc1ccc(NS(=O)(=O)c2ccsc2)c(-c2ccco2)c1 [ID-5],significantly reduce,increase,decrease,significantly reduce,significantly reduce
< 1,"CNCc1ccc(-c2cc[nH]n2)c(NS(=O)(=O)c2ccccc2)c1 [IA-55, N-(5-((methylamino)methyl)-2-(1H-pyrazol-3-yl)phenyl)benzenesulfonamide]",significantly reduce,increase,decrease,significantly reduce,significantly reduce
< 1,CNCc1ccc(NS(=O)(=O)c2ccsc2)c(-c2ccco2)c1 [IA-30],significantly reduce,increase,decrease,significantly reduce,significantly reduce
< 1,"CNCc1ccc(-c2nccs2)c(NS(=O)(=O)c2ccccc2)c1 [IA-51, N-(5-((methylamino)methyl)-2-(thiazol-2-yl)phenyl)benzenesulfonamide]",significantly reduce,increase,decrease,significantly reduce,significantly reduce
